Some targets named below: Motilin receptor (Homo sapiens, UniProt O43193); Melanocortin receptor 3 (Homo sapiens, UniProt P41968); Adenosine receptor A2a (Homo sapiens, UniProt P29274); Cannabinoid receptor 1 (Homo sapiens, UniProt P21554).
The target of experiment [1] is T1, 5-hydroxytryptamine receptor 1A (Homo sapiens, UniProt P08908).
T1 sequence (P08908 whole entry): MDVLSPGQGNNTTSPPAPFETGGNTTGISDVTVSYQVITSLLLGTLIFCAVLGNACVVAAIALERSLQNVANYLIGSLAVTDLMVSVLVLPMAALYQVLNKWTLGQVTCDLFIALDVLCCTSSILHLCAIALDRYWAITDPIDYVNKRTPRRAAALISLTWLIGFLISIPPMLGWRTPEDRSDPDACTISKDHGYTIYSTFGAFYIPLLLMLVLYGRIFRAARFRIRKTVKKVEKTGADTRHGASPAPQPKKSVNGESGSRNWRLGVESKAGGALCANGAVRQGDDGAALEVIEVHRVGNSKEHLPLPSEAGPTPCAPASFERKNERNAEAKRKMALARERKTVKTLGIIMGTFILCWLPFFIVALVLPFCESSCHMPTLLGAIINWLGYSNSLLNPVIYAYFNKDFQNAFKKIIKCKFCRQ
Type of experiment: functional, cell-based.

A further experiment concerns the target T2, Adenosine receptor A1 (Homo sapiens, UniProt P30542).
T2 sequence (P30542 whole entry): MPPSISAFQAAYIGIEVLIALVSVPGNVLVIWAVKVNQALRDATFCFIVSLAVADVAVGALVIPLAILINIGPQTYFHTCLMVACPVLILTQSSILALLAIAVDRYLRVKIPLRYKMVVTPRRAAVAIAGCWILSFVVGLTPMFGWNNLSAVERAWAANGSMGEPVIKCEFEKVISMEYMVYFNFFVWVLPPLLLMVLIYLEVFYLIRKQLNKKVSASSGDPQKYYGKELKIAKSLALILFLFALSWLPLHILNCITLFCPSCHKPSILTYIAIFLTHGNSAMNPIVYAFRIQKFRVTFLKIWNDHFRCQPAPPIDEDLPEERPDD

The target of experiment [2] is T3, Alpha-2C adrenergic receptor (Homo sapiens, UniProt P18825).
T3 sequence (P18825 whole entry): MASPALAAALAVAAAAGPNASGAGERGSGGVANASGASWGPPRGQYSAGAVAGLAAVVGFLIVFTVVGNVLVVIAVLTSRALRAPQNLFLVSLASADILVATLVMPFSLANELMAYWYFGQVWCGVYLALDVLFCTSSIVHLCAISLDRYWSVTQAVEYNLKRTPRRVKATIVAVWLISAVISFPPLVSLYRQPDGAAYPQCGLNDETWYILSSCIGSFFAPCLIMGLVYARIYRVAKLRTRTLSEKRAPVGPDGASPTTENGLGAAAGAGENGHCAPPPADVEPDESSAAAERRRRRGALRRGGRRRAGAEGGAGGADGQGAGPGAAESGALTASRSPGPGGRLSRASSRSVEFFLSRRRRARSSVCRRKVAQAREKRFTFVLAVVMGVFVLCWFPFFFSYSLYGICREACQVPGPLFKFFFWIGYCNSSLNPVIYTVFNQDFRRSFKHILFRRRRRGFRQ
Type of experiment: functional.

For experiment [3], the target named is T4, Muscarinic acetylcholine receptor M2 (Homo sapiens, UniProt P08172).
T4 sequence (P08172 whole entry): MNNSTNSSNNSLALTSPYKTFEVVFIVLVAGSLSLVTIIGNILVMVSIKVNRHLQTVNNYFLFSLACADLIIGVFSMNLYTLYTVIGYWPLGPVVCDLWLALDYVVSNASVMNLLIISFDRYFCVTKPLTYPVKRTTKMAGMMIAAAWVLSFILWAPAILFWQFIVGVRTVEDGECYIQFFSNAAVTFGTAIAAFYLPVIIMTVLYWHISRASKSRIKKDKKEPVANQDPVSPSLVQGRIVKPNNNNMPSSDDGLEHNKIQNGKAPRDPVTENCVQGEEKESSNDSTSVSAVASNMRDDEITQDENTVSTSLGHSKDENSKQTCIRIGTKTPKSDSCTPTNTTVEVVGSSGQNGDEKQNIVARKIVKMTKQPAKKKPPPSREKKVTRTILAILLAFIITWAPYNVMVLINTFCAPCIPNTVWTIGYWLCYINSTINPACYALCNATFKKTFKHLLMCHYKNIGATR
Type of experiment: functional, cell-based.

The target in experiment [4] is T1, 5-hydroxytryptamine receptor 1A. Type of experiment: functional, cell-based. This is another data set of the same source.
Experiment [5] addresses T5, Alpha-2A adrenergic receptor (Homo sapiens, UniProt P08913).
T5 sequence (P08913 whole entry): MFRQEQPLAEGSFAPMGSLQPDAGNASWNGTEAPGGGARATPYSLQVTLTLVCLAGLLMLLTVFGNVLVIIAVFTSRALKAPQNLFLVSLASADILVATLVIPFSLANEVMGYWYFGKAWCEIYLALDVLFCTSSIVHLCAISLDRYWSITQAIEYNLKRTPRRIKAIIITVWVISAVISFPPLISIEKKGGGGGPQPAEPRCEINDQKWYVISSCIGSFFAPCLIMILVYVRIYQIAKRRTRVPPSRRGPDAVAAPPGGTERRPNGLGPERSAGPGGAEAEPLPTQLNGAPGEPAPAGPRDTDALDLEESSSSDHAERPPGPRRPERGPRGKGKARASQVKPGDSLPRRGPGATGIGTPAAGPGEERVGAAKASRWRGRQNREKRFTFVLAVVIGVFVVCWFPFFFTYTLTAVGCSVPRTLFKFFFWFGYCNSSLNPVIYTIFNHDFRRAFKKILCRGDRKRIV
Type of experiment: functional, cell-based.

Experiment [6] has as its target Voltage-gated inwardly rectifying potassium channel KCNH2 (Homo sapiens, UniProt Q12809). Type of experiment: functional.
For another experiment, the target named is Histamine H2 receptor (Homo sapiens, UniProt P25021). Type of experiment: functional, cell-based.
Further: assay procedure not described here.

Chain of Adenosine receptor A2a (P29274 whole entry): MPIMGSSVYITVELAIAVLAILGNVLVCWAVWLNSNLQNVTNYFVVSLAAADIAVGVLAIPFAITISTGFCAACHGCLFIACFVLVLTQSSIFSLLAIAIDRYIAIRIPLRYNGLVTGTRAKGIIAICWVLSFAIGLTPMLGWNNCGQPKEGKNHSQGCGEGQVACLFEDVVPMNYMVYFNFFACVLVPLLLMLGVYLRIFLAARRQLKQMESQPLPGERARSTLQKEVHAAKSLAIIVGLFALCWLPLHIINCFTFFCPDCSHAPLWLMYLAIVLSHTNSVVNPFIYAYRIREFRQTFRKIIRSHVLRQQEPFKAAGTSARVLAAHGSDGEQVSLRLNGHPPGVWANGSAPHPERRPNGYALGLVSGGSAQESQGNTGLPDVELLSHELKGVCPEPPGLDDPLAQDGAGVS
Chain of Voltage-gated inwardly rectifying potassium channel KCNH2 (Q12809 whole entry): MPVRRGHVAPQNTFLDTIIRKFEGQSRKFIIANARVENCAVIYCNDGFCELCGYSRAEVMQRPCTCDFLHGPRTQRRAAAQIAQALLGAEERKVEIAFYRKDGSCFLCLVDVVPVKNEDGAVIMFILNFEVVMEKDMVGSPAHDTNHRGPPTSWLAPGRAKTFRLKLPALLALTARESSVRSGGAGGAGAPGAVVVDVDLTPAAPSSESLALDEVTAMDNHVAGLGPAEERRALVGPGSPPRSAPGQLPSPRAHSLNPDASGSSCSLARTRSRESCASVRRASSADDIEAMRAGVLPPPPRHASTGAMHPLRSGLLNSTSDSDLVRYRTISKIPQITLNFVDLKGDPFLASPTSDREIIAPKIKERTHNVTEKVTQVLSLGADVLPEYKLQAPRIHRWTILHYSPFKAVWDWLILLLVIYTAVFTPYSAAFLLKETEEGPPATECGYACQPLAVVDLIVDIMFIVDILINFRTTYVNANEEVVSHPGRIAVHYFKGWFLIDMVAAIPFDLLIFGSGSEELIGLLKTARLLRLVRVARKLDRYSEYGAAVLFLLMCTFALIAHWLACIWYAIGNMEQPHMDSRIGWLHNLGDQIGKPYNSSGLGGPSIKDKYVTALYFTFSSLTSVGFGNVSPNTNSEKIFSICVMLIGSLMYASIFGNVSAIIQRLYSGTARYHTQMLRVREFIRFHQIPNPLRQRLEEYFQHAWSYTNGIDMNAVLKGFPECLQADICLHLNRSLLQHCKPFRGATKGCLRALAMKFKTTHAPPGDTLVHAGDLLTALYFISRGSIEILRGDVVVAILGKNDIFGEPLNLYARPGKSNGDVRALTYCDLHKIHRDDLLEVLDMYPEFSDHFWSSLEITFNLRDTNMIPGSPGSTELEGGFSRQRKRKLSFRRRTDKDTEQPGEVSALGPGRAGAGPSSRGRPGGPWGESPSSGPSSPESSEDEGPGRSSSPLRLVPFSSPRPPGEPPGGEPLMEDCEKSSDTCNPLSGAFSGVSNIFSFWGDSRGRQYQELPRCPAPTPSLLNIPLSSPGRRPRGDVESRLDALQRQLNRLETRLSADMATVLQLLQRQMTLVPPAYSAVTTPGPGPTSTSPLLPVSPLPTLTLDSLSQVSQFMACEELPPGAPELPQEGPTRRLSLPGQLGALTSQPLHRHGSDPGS
Chain of Melanocortin receptor 3 (P41968 whole entry): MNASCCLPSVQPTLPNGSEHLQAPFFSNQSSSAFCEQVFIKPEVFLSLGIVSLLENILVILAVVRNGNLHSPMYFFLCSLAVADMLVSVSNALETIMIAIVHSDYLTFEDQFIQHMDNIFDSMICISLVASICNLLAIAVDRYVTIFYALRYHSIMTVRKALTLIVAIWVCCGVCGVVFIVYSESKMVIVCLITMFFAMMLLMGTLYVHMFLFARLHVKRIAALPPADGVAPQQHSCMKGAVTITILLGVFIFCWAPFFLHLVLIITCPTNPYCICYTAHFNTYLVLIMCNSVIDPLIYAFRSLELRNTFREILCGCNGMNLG
Chain of Histamine H2 receptor (P25021 whole entry): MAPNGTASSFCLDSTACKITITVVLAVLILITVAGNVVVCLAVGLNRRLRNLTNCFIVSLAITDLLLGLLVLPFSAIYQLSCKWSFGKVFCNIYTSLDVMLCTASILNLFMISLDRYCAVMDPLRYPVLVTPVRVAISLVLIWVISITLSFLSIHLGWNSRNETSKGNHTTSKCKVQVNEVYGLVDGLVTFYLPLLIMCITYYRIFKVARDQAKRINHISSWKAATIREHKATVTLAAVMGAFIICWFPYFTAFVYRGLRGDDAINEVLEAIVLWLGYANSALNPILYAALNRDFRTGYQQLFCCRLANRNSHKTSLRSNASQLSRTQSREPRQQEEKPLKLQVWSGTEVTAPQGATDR
Chain of Cannabinoid receptor 1 (P21554 whole entry): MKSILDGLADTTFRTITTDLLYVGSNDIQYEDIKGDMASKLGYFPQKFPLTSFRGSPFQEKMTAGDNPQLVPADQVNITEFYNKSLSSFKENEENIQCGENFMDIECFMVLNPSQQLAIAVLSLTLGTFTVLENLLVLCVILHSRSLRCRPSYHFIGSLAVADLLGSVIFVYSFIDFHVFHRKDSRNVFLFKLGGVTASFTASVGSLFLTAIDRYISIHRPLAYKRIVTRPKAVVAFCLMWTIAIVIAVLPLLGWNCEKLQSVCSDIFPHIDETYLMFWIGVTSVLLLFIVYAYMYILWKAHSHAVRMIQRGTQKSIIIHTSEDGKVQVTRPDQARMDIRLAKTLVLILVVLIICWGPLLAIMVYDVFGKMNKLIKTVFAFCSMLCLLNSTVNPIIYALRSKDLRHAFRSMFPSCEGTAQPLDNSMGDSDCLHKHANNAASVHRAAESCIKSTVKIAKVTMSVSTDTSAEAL
Chain of Motilin receptor (O43193 whole entry): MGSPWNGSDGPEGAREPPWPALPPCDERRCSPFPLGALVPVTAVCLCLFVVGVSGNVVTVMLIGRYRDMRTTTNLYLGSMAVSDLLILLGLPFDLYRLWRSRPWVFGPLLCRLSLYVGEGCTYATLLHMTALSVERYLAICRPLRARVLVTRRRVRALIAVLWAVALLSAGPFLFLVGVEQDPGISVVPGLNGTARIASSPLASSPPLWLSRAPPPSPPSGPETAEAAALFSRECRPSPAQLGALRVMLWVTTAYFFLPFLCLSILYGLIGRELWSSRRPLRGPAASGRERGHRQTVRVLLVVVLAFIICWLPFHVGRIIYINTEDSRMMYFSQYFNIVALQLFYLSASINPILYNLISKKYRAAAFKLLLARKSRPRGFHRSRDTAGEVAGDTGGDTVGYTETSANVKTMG

As usually defined, the AC50 is the concentration giving half of the maximal activity seen. For `Cc1cc2cc3c(C)cc(=O)oc3c(C)c2o1` [TRIOXSALEN], the AC50 in [1] is more than 10 µM; at Motilin receptor, more than 10 µM; on Adenosine receptor A1, more than 30 µM; in [2] it was more than 10 µM; in experiment [3], more than 10 µM; at Melanocortin receptor 3, more than 10 µM. For the same compound, the half-maximal activity concentration (AC50) in experiment [4] was more than 10 µM; in experiment [5], more than 10 µM; on Adenosine receptor A2a, 6.7 µM; at Cannabinoid receptor 1, more than 10 µM; in experiment [6] it was more than 30 µM; at Histamine H2 receptor, more than 10 µM.
As for `CC12CC3CC(C)(C1)CC(N)(C3)C2` [MEMANTINE], the AC50 was more than 10 µM in experiment [1]; more than 10 µM at Motilin receptor; more than 30 µM at Adenosine receptor A1; more than 10 µM in [2]; more than 10 µM in experiment [3]; more than 30 µM at Melanocortin receptor 3. Besides, the half-maximal activity concentration (AC50) in experiment [4] was more than 10 µM; in experiment [5] it was more than 10 µM; at Adenosine receptor A2a, more than 30 µM; at Cannabinoid receptor 1, more than 10 µM; in experiment [6] it was more than 30 µM; at Histamine H2 receptor, more than 10 µM.
On to `CN1CCC(=C2c3ccccc3CCc3cccnc32)CC1` [AZATADINE], for which the half-maximal activity concentration (AC50) is more than 30 µM in experiment [1]; more than 10 µM on Motilin receptor; more than 30 µM on Adenosine receptor A1; more than 10 µM in experiment [3]; more than 30 µM on Melanocortin receptor 3; more than 10 µM in experiment [5]. Moreover, the half-maximal activity concentration (AC50) on Adenosine receptor A2a was more than 30 µM; at Cannabinoid receptor 1, more than 10 µM; in experiment [6] it was 24.6 µM; at Histamine H2 receptor it was more than 10 µM.
As to `CCOC(=O)C1=C(C)NC(C)=C(C(=O)OC)C1c1cccc([N+](=O)[O-])c1` (stereo not drawn) [NITRENDIPINE], the AC50 is more than 10 µM in [1]; more than 10 µM on Motilin receptor; more than 30 µM on Adenosine receptor A1; more than 10 µM in [2]; more than 10 µM in experiment [3]; more than 30 µM at Melanocortin receptor 3. The AC50 in [4] was more than 10 µM; in experiment [5], more than 10 µM; at Adenosine receptor A2a, more than 30 µM; at Cannabinoid receptor 1, more than 10 µM; in experiment [6], more than 30 µM; at Histamine H2 receptor it was more than 10 µM.
Turning to `CCCCC(=O)O[C@]1(C(=O)CO)[C@@H](C)C[C@H]2[C@@H]3CCC4=CC(=O)C=C[C@]4(C)[C@@]3(F)[C@@H](O)C[C@@]21C` [BETAMETHASONE VALERATE], the AC50 in [1] was more than 30 µM; on Motilin receptor it was more than 10 µM; at Adenosine receptor A1, more than 30 µM; in experiment [2], more than 10 µM; in experiment [3], more than 10 µM; at Melanocortin receptor 3, more than 30 µM. The AC50 was more than 10 µM in experiment [5]; more than 30 µM on Adenosine receptor A2a; more than 10 µM at Cannabinoid receptor 1; more than 30 µM in experiment [6]; more than 10 µM at Histamine H2 receptor.
For `CCCN[C@H]1CCc2nc(N)sc2C1` [PRAMIPEXOLE], the AC50 in [1] was 16 µM; at Motilin receptor it was more than 10 µM; on Adenosine receptor A1, more than 30 µM; in experiment [2] it was more than 10 µM; in [3], more than 10 µM; at Melanocortin receptor 3, more than 30 µM. In addition, the AC50 in [4] was more than 10 µM; at Adenosine receptor A2a, more than 30 µM; in experiment [6], more than 30 µM; on Histamine H2 receptor it was 0.73 µM.
Turning to `CCC[C@H](NC(=O)[C@@H]1[C@H]2CCC[C@H]2CN1C(=O)[C@@H](NC(=O)[C@@H](NC(=O)c1cnccn1)C1CCCCC1)C(C)(C)C)C(=O)C(=O)NC1CC1`, the AC50 was more than 10 µM at Motilin receptor; more than 30 µM at Adenosine receptor A1; more than 10 µM in experiment [2]; more than 30 µM at Melanocortin receptor 3; more than 30 µM on Adenosine receptor A2a; more than 10 µM at Cannabinoid receptor 1. The AC50 in experiment [6] was more than 30 µM.
In the case of `Cc1noc(NS(=O)(=O)c2ccc(N)cc2)c1C` [SULFISOXAZOLE], the AC50 (in experiment [1]; at Motilin receptor; at Adenosine receptor A1; in experiment [2]; in experiment [3]; on Melanocortin receptor 3) was more than 10 µM in each case. The AC50 is more than 10 µM in experiment [5]; more than 10 µM on Adenosine receptor A2a; more than 10 µM at Cannabinoid receptor 1; more than 30 µM in experiment [6]; more than 10 µM at Histamine H2 receptor.
As for `CC(C)NCC(O)c1ccc(O)c(O)c1` (stereo not drawn) [ISOPROTERENOL], the AC50 in experiment [1] is more than 10 µM; at Motilin receptor, more than 10 µM; at Adenosine receptor A1, more than 30 µM; in [3], more than 10 µM; at Melanocortin receptor 3, more than 30 µM; in experiment [4] it was more than 10 µM. Besides, the concentration at half-maximal activity (AC50) is more than 30 µM at Adenosine receptor A2a, more than 10 µM at Cannabinoid receptor 1, more than 30 µM in experiment [6] and more than 10 µM at Histamine H2 receptor.
For `CCCC(CCC)C(N)=O` [VALPROMIDE], the AC50 was more than 30 µM in experiment [1]; more than 10 µM at Motilin receptor; more than 30 µM on Adenosine receptor A1; more than 10 µM in [2]; more than 10 µM in experiment [3]; more than 30 µM on Melanocortin receptor 3. Further, the AC50 in experiment [5] was more than 10 µM; on Adenosine receptor A2a, more than 30 µM; on Cannabinoid receptor 1 it was more than 10 µM; in [6], more than 30 µM; on Histamine H2 receptor, more than 10 µM.
For the compound `CNC1=Nc2ccc(Cl)cc2C(c2ccccc2)=[N+]([O-])C1` [CHLORDIAZEPOXIDE], the AC50 in [1] is more than 30 µM; at Motilin receptor, more than 10 µM; at Adenosine receptor A1, more than 30 µM; in experiment [2], more than 10 µM; in [3], more than 10 µM; on Melanocortin receptor 3, more than 30 µM. Further, the AC50 is more than 10 µM in experiment [5]; more than 30 µM on Adenosine receptor A2a; more than 10 µM at Cannabinoid receptor 1; more than 30 µM in experiment [6]; more than 30 µM on Histamine H2 receptor.
With `CC(C(=O)O)c1ccc(CC2CCCC2=O)cc1` (stereo not drawn) [LOXOPROFEN], the half-maximal activity concentration (AC50) (in experiment [1]; at Motilin receptor; at Adenosine receptor A1; in experiment [2]; in [3]; at Melanocortin receptor 3) was more than 30 µM each time. Moreover, the AC50 (in experiment [4]; in experiment [5]; on Adenosine receptor A2a; in [6]; at Histamine H2 receptor) was more than 30 µM in each case.

For the origin of these results see ChEMBL document CHEMBL5291721, “A preclinical secondary pharmacology resource illuminates target-adverse drug reaction associations of marketed drugs” (Nat Commun, 2023).
